Consider one substance from patent publication US10676406B2, “Hopanoids producing bacteria and related biofertilizers, compositions, methods and systems” (CALIFORNIA INSTITUTE OF TECHNOLOGY, priority 2015, dated 2020).

One assay deals with B. diazoefficiens WT. As to the kind of experiment: MIC of polymyxin B by E-test. The conditions noted are these: E-test strips 0.064-1024 μg/mL, 30° C., 7 days. The class given is cell-based, Bradyrhizobium diazoefficiens. The method, then:
(§1) Disk diffusion assays were used to quantify growth under oxidative, acidic and detergent stresses. For this, 4 day-old cultures of B. diazoefficiens strains grown in yeast extract-mannitol (YM) medium were washed and adjusted to an OD600 of 1.2 ml bacterial suspensions were then mixed with 100 ml of 42° C. pre-warmed YM soft agar (0.8% agar) and 5 ml portions of this mixture were poured on solid YM. Filter disks were placed at the center of the plates, and 5 μl of 5.5 M H2O2, 2 M HCl or SDS (10% w/v), were deposited on the disks. The diameters of growth inhibition areas were measured after incubation at 30° C. for 5 days.
(§2) The MIC of polymyxin B was determined by the E-test method using disk diffusion assay as described above. Strips containing a gradient of polymyxin B ranging from 0.064-1024 μg/mL (Biomérieux, Marcy-l'étoile, France) were placed in the center of plates, which were incubated at 30° C. for 7 days before recording the results. The experiment was done in triplicates.

The subject of the next assay is B. diazoefficiens ΔhpnH. As to the kind of experiment: MIC of polymyxin B by E-test. The format is cell-based, Bradyrhizobium diazoefficiens. Here is the method:
as §1, §2

As to polymyxin B, the “MIC for polymyxin B” value came to 512 µg/mL in the assay with B. diazoefficiens WT and 48 µg/mL in the assay with B. diazoefficiens ΔhpnH (E-test strips 0.064-1024 μg/mL, 30° C., 7 days). Also, in the assay on B. diazoefficiens ΔhpnH (ΔhpnH versus WT), the “fold lower MIC for polymyxin B in ΔhpnH than WT” value stood at 10 fold.
